Legend:
Stat3 = test: IL-6-induced phosphorylation of Stat3 (tyrosine-705, serine-727) in HepG2 cells, immunoprecipitation/Western blot; assay type: cell-based, human; details: HepG2, IL-6 50 ng/ml; all concentrations tested, up to 16 μg/ml, equivalent to 165 μM
Source text: A crucial step in IL-6-dependent intracellular signal transduction is the phosphorylation of tyrosine-705 in Stat3 and tyrosine-701 in Stat1. […] However, inhibitors which inhibit the Stat3 and Stat1 phosphorylation also have crucial effects on other signal cascades, and therefore pharmaceutically usable inhibitors of IL-6-dependent gene expression should, in the concentration range in which they display their pharmacological effect, affect the Stat3 or Stat1 phosphorylation only slightly or not at all.
Seed out HepG2 cells in Petri dishes (diameter: 10 cm) (OptiMEM medium with 10% fetal calf serum and penicillin/streptomycin (100 iu) cell density: 5×10^5 cell/ml). Incubate in a moist atmosphere with 5% CO2 at 37° C. for 24 h. Replace medium by fresh OptiMEM medium with 0.5% fetal calf serum and penicillin/streptomycin (100 iu) and incubate for a further 48 h. Replace medium by fresh OptiMEM medium with 0.5% fetal calf serum and penicillin/streptomycin (100 iu), add test substances in various concentrations, and incubate for 60 min. 5 μl of the substances dissolved in ethanol, or only ethanol (controls), were added per mixture (10 ml). Induce cells by adding IL-6 (final concentrations 50 ng/ml).
After 20 min. remove medium and wash cell lawn twice wtih 1.5 ml of ice-cold PBS (137 mM NaCl, 2.7 mM KCl, 8.1 mM Na2HPO4×2H2O, 1.5 mM KH2PO4) each time. […]

activated Stat3 dimers = target: T1, activated Stat3 dimers (Homo sapiens, UniProt P40763); test: Electrophoretic mobility shift assay: DNA binding of activated Stat3 dimers to m67SIE probe; details: 16 ng/ml (82 nM), HepG2
T1 construct: Probe used: m67SIE, induction time 20 minutes: cell line: HepG2; endogenous in cells; host or cells: HepG2 (cell extract)
Source text: The DNA binding of activated Stat3 dimers to their binding sites in the promoters of the target genes is the basic requirement for transcriptional activation of these genes. At the same time, this step is specific for Stat3, i.e. inhibition of this step would result in specific inhibition of IL-6-induced and Stat3-mediated expression of the target genes without simultaneously affecting other signal cascades. The effect of the various compounds on the DNA binding ability of the phosphorylated and thus activated Stat3 dimers was analysed by carrying out electrophoretic mobility shift assays (EMSAs, gel shift assays).
The procedure was as described in Nature, 1993, 362: 79-83 and Mol. Cell Biol, 1998, 18: 2108-17. The DNA probe used was the ^32P-labelled, double-stranded oligonucleotide with the m67SIE recognition sequence (S2) (wild-type) (cf. EMBO J. 1995, 14: 1421-9)
It was possible to show with control mixtures in which the induced control was preincubated with phospho-Stat3 (tyrosine 705)-specific antibodies that it is Stat3 phosphorylated on the tyrosine 705 residue which binds to the m67SIE probe (see FIG. 6).
Effect of galiella lactone on the binding of activated Stat3 dimers to their DNA recognition sequence. Probe used: m67SIE, induction time 20 minutes: cell line: HepG2.

[1] = tested on: 6-hydroxydopamine lesion of the substantia nigra; test: 6-Hydroxydopamine (6-OH-DA) lesion in the rat, staircase test (forepaw coordination); assay type: in vivo; details: bid, i.p.

T1 sequence (P40763 2-770 limits assumed): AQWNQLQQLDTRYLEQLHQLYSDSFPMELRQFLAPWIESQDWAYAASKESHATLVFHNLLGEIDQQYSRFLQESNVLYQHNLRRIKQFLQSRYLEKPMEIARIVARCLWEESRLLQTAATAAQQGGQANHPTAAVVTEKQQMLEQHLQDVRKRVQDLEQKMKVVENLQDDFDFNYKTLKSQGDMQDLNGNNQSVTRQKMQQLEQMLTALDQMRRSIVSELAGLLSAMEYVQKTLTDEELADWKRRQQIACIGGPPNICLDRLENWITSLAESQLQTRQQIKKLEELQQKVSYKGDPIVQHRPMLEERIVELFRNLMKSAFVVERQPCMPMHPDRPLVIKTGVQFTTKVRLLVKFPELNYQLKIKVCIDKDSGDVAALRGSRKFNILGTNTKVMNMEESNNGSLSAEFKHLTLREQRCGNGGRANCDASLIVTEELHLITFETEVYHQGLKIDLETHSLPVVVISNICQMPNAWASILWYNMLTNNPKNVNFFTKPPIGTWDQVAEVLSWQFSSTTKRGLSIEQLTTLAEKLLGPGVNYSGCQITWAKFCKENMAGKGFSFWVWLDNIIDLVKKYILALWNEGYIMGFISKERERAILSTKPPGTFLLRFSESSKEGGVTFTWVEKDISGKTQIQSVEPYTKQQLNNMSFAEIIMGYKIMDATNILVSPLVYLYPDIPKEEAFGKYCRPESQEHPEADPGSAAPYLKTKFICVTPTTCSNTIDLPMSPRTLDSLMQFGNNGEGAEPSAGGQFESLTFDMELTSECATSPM

binding of the activated Stat3 dimers to their recognition sequence (activated Stat3 dimers): completely inhibits
SMILES: C[C@H]1C=C2C(=O)O[C@H]3CC[C@@H](C1)[C@@]23O [galiella lactone]
effect on the phosphorylation of Stat3 (Stat3): no effect
fine motor control of the forepaws (staircase test) ([1]; 1.0 mg/kg): improved
fine motor control of the forepaws (staircase test) ([1]; 3.0 mg/kg): improved

Source: patent US6512007B1, “Use of galiella lactone” (Bayer Aktiengesellschaft, priority 2000, dated 2003)
